Series [1] deals with Mus musculus. The series is described as follows: Toxicity in Kunming mouse xenografted with […] H22 cells assessed as effect on spleen weight index at 30 mg/kg, iv administered for 7 consecutive days. It is filed as organism-based. The settings on record: in vivo.
Series [2] can be described thus: Toxicity in iv dosed Kunming mouse assessed as maximum tolerated dose administered for 7 consecutive days. The settings on record: in vivo. It is filed as organism-based.
Series [3] concerns Mus musculus. The series is described as follows: Toxicity in Kunming mouse xenografted with […] H22 cells assessed as effect on kidney weight index at 30 mg/kg, iv administered for 7 consecutive days. It is filed as organism-based. The settings on record: in vivo.
Series [4] in a line: Drug localization in lysosomes of human HepG2 cells at 7.5 uM after 8 hrs by LysoTracker Red dye-based confocal fluorescence microscopic analysis. It is filed as ADME, subcellular, Lysosome. The settings on record: hepg2, 8 h.
Series [5] concerns HepG2. The series is described as follows: Induction of apoptosis in human HepG2 cells assessed as viable cells at 7.5 uM after 8 hrs by Annexin V-FITC/propidium iodide staining-based flow cytometry (reference value: 97.43%). The settings on record: HepG2, 8 h, read-out: Activity. It is filed as functional.
Series [6] deals with HepG2. Nature of the series: Induction of apoptosis in human HepG2 cells assessed as necrotic cells at 2.5 uM after 24 hrs by Annexin V-FITC/propidium iodide staining-based flow cytometry (reference value: 0.12%). It is filed as functional.
Series [7] relates to HepG2. The series is described as follows: Induction of apoptosis in human HepG2 cells assessed as viable cells at 2.5 uM after 24 hrs by Annexin V-FITC/propidium iodide staining-based flow cytometry (reference value: 96.97%). It is filed as functional. The settings on record: HepG2, 24 h, read-out: Activity.
Series [8] deals with HepG2. Nature of the series: Induction of apoptosis in human HepG2 cells assessed as viable cells at 7.5 uM after 24 hrs by Annexin V-FITC/propidium iodide staining-based flow cytometry (reference value: 96.97%). It is filed as functional. The settings on record: HepG2, 24 h, read-out: Activity.
The subject of series [9] is HepG2. The series is described as follows: Induction of apoptosis in human HepG2 cells assessed as early apoptotic cells at 5 uM after 24 hrs by Annexin V-FITC/propidium iodide staining-based flow cytometry (reference value: 2.07%). It is filed as functional.
In series [10] the test system is HepG2. The series is described as follows: Induction of apoptosis in human HepG2 cells assessed as viable cells at 2.5 uM after 36 hrs by Annexin V-FITC/propidium iodide staining-based flow cytometry (reference value: 96.6%). It is filed as functional. The settings on record: HepG2, 36 h, read-out: Activity.
Series [11] deals with HepG2. The series is described as follows: Induction of apoptosis in human HepG2 cells assessed as late apoptotic cells at 7.5 uM after 36 hrs by Annexin V-FITC/propidium iodide staining-based flow cytometry (reference value: 1.08%). It is filed as functional.
Series [12] concerns HepG2. Nature of the series: Induction of apoptosis in human HepG2 cells assessed as early apoptotic cells at 5 uM after 36 hrs by Annexin V-FITC/propidium iodide staining-based flow cytometry (reference value: 2.08%). It is filed as functional.
In series [13] the test system is HepG2. The series is described as follows: Induction of apoptosis in human HepG2 cells assessed as early apoptotic cells at 2.5 uM after 48 hrs by Annexin V-FITC/propidium iodide staining-based flow cytometry (reference value: 1.30%). It is filed as functional.
For series [14], the system named is HepG2. Nature of the series: Induction of apoptosis in human HepG2 cells assessed as early apoptotic cells at 7.5 uM after 48 hrs by Annexin V-FITC/propidium iodide staining-based flow cytometry (reference value: 1.30%). It is filed as functional.
In series [15] the test system is HepG2. Nature of the series: Induction of apoptosis in human HepG2 cells assessed as necrotic cells at 7.5 uM after 48 hrs by Annexin V-FITC/propidium iodide staining-based flow cytometry (reference value: 0.08%). It is filed as functional.
Series [16] concerns HepG2. The series is described as follows: Induction of apoptosis in human HepG2 cells assessed as early apoptotic cells at 5 uM after 48 hrs by Annexin V-FITC/propidium iodide staining-based flow cytometry (reference value: 1.30%). It is filed as functional.
Series [17] concerns HepG2. The series is described as follows: Induction of apoptosis in human HepG2 cells assessed as decrease in Bcl2 protein expression after 48 hrs by immunofluorescence staining-based high content screening assay. It is filed as functional, cell-based.

SMILES strings stand for the structures. Activity calls are given as the source filed them. The calls are words filed in the database; no cut-off is given here.

With `COc1ccc2cc(-c3oc4c(CNCCCCN)cccc4c(=O)c3OC)ccc2c1Br.Cl.Cl`, the Activity entry in the series on Mus musculus [1] is “Non-Toxic”; in the series on Mus musculus [3], “Non-Toxic”; with HepG2 [6], 0%; with HepG2 [9] it was 15.76%; in the series with HepG2 [11], 6.3%; in the series on HepG2 [12], 16.72%. Also, the Activity is given as 21.8% in the series on HepG2 [13], 23.02% in the series on HepG2 [14], 0.17% in the series on HepG2 [15] and 26.36% with HepG2 [16]. In series [2], the MTD at 7 days was determined as 50 mg/kg. The Drug uptake result in series [4] is “Not Active”. Besides, the figures for the viability at 7.5 µM in the series with HepG2 [5] and with HepG2 [8] were 78.5% and 67.2%, respectively. For the same molecule, the viability at 2.5 µM turned out to be 88.7% with HepG2 [7] and 84% with HepG2 [10]. Moreover, the outcome in the series with HepG2 [17] was Active.

These data come from ChEMBL document CHEMBL4196011, “The lead optimization of the polyamine conjugate of flavonoid with a naphthalene motif: Synthesis and biological evaluation” (Eur J Med Chem, 2018).
